Data from the supplement of paper PMC10307832.

Legend:
Assay in all cases: relative viability (nuclei count vs DMSO), 5 days (fraction); higher = more cells survive
[1] = compound: O=C(C[C@H]1NCCC[C@@H]1O)Cn1cnc2cc(Br)c(Cl)cc2c1=O (racemic) [Halofuginone] + Nc1ncn([C@H]2C[C@H](O)[C@@H](CO)O2)c(=O)n1 [Decitabine] (partner 2 µM)
Outline: (§1)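 Lung cancer cell lines were seeded in 1536-well plates and dosed by pin tool the next day, with either a single drug or a fixed anchor-drug dose combined with five library-drug doses (not always all listed) spaced in √10 steps. Five days later, one step fixed the cells and stained their nuclei (final 0.05% Triton X-100, 1% formaldehyde, 1 ug/ml Hoechst), and nuclei were counted on 4× images. Relative viability is the nuclei count in treated wells divided by the count in vehicle wells, and each value is the median of duplicate plates.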

Halofuginone + Olaparib = compound: O=C(C[C@H]1NCCC[C@@H]1O)Cn1cnc2cc(Br)c(Cl)cc2c1=O (racemic) [Halofuginone] + O=C(c1cc(Cc2n[nH]c(=O)c3ccccc23)ccc1F)N1CCN(C(=O)C2CC2)CC1 [Olaparib] (partner 8 µM)
Outline: as §1

Decitabine + Luminespib = compound: Nc1ncn([C@H]2C[C@H](O)[C@@H](CO)O2)c(=O)n1 [Decitabine] + CCNC(=O)c1noc(-c2cc(C(C)C)c(O)cc2O)c1-c1ccc(CN2CCOCC2)cc1 [Luminespib] (partner 0.01 µM)
Outline: as §1

Decitabine + Bortezomib = compound: Nc1ncn([C@H]2C[C@H](O)[C@@H](CO)O2)c(=O)n1 [Decitabine] + CC(C)C[C@H](NC(=O)[C@H](Cc1ccccc1)NC(=O)c1cnccn1)B(O)O [Bortezomib] (partner 0.002 µM)
Outline: as §1

Cell Line	relative viability ([1]; first compound 0.001 µM)	relative viability ([1]; first compound 0.003162 µM)	relative viability ([1]; first compound 0.01 µM)	relative viability ([1]; first compound 0.03162 µM)	relative viability ([1]; first compound 0.1 µM)	relative viability (Halofuginone + Olaparib; first compound 0.001 µM)	relative viability (Halofuginone + Olaparib; first compound 0.003162 µM)	relative viability (Halofuginone + Olaparib; first compound 0.01 µM)	relative viability (Halofuginone + Olaparib; first compound 0.03162 µM)	relative viability (Halofuginone + Olaparib; first compound 0.1 µM)	relative viability (Decitabine + Luminespib; first compound 0.04 µM)	relative viability (Decitabine + Luminespib; first compound 0.1265 µM)	relative viability (Decitabine + Luminespib; first compound 0.4 µM)	relative viability (Decitabine + Luminespib; first compound 1.265 µM)	relative viability (Decitabine + Luminespib; first compound 4 µM)	relative viability (Decitabine + Bortezomib; first compound 0.04 µM)	relative viability (Decitabine + Bortezomib; first compound 0.1265 µM)	relative viability (Decitabine + Bortezomib; first compound 0.4 µM)	relative viability (Decitabine + Bortezomib; first compound 1.265 µM)	relative viability (Decitabine + Bortezomib; first compound 4 µM)
NCI-H650	0.362	0.314	0.285	0.323	0.28	0.395	0.389	0.408	0.36	0.286	0.627	0.652	0.489	0.314	0.315	0.509	0.534	0.227	0.294	0.223
NCI-H1975	0.4	0.408	0.436	0.385	0.285	0.875	0.868	0.721	0.429	0.14	0.198	0.161	0.162	0.174	0.142	0.227	0.268	0.178	0.168	0.169
NCI-H2085	0.562	0.542	0.546	0.581	0.52	0.795	0.816	0.728	0.736	0.684	0.436	0.404	0.323	0.372	0.344	0.751	0.801	0.58	0.451	0.366
NCI-H3122	0.438	0.442	0.381	0.413	0.405	0.654	0.618	0.642	0.692	0.686	0.0814	0.0807	0.0785	0.0889	0.0802	0.973	0.987	0.968	0.782	0.725
NCI-H1651	0.592	0.563	0.601	0.591	0.58	0.177	0.194	0.2	0.178	0.176	0.942	0.844	0.828	0.69	0.658	0.96	0.936	0.824	0.682	0.76
NCI-H441	0.29	0.262	0.262	0.275	0.234	0.591	0.537	0.56	0.455	0.238	0.271	0.371	0.337	0.293	0.256	0.228	0.26	0.231	0.198	0.198
ABC-1	1.11	1.39	0.926	1.26	1.04	1.06	0.793	0.617	0.847	1.09	–	0.807	0.521	0.345	0.331	0.286	0.239	0.315	0.23	0.228
NCI-H2126	0.586	0.612	0.58	0.52	0.588	0.893	0.863	0.882	0.901	0.916	0.811	0.723	0.547	0.492	0.485	0.984	0.975	0.648	0.655	0.591
RERF-LC-KJ	0.842	0.807	0.664	0.753	0.563	1.19	0.983	0.884	0.959	0.632	1.18	1.01	–	0.582	0.685	1.05	0.931	0.525	0.824	0.779
NCI-H1666	0.769	0.601	0.724	0.795	0.794	0.758	0.785	0.714	0.789	0.705	0.927	0.964	0.815	0.674	0.726	0.723	0.726	0.545	0.625	0.569
PC-14	0.231	0.273	0.237	0.259	0.0807	0.383	0.333	0.406	0.218	0.0499	0.145	0.227	0.173	0.168	0.131	0.35	0.507	0.369	0.221	0.168
NCI-H1915	0.25	0.265	0.257	0.274	0.253	0.225	0.247	0.241	0.26	0.237	0.331	0.465	0.267	0.186	0.219	0.379	0.279	0.197	0.183	0.184
NCI-H661	0.595	0.618	0.564	0.555	0.479	0.797	0.74	0.671	0.666	0.566	0.937	0.771	0.628	0.534	0.452	0.688	0.61	0.459	0.339	0.332
PC-3 [JPC-3]	0.77	0.832	0.861	0.923	0.781	1.19	1.12	1.15	1.15	0.948	0.43	0.708	0.454	0.408	0.488	–	0.6	0.458	0.462	0.389
LCLC-103H	0.773	0.78	0.735	0.711	0.728	0.794	0.779	0.778	0.747	0.737	0.863	0.829	0.685	0.594	0.472	0.985	1.04	0.966	0.9	0.749
EKVX	0.317	0.313	0.281	0.354	0.276	0.861	0.849	0.789	0.843	0.645	0.68	0.682	0.551	0.389	0.322	0.71	0.776	0.798	0.383	0.381
